Where two headings read alike, the source gives them in different places.
Key:
[1] = Plasma pharmacokinetics of Compound I and Biapenem alone or in combination after 1.5 hour intravenous infusion in Sprague-Dawley rats (Example 3); format: in vivo; conditions: for Plasma pharmacokinetic parameters, alone versus in combination / AUC / clearance / half-life: Sprague-Dawley rats; for Plasma pharmacokinetic parameters, alone versus in combination: single intravenous infusion; for AUC / clearance / half-life: male, Sprague-Dawley, plasma, iv, 20 mg/kg, 1.5 hour intravenous infusion; for AUC / clearance / half-life / Biapenem Calc. Conc. in plasma: rat; for Biapenem Calc. Conc. in plasma: IV infusion
Method: Example 3 provides a summary of the pharmacokinetic studies of Compound I alone or in combination with Biapenem following a single intravenous infusion dose in Sprague-Dawley rats. The pharmacokinetics of 20 mg/kg of Compound I, 20 mg/kg of Biapenem, and 20 mg/kg of Compound I in combination with 20 mg/kg of Biapenem after a 1.5 hour intravenous infusion were discussed.
Biapenem power was purchased from Hisun Pharmaceuticals. Compound I was prepared using the method described in the U.S. Publication 2012/0040932 A1. 20 mg of biapenem was dissolved in 0.1 M NaH2PO4 for a basic stock solution. 100 mg of Compound I was dissolved in 30% 1N NaOH to ˜pH 5.0. For animal studies, these stock solutions were further diluted in 0.9% saline to the appropriate concentration.
The specifications for animals used on this study were as follows: • Species: Rat • Strain: Sprague-Dawley • Gender: Male • Source: Charles River (Hollister, Calif.) • Number of Animals: 3 per study • Body Weight Range: 230-280 g at the start of the study
After acclimation, rats (n=3) were administered single 20 mg/kg intravenous infusion doses of Compound I or Biapenem alone or in combination. Doses were infused over 1.5 hours via an indwelling femoral vein cannula. Plasma (˜0.3 mL) samples were collected from each rat at designated time points up to 24 hours. The time points are shown in section 2.9. Blood samples were centrifuged within 5 min of collection at 12000 g for 5 min to obtain plasma. The plasma samples were stored on −80° C. until analyzed.
Compound I standard curves were prepared in rat plasma from 0.1 to 100 μg/mL. 50 μl aliquots of sample were placed in 1.5 mL microcentrifuge tubes. 20 μl of Compound II (10 μg/mL) was added as internal standard to each sample or standard. 20 μl of 30% trichloroacetic acid was then added to each sample or standard. The samples were mixed using a vortex mixer centrifuged for 10 min at 15,000 RPM using a tabletop centrifuge. The supernatant (approx. 120 μl) was removed and added to 100 μl of water in a 96-well plate. The samples were mixed again using a vortex mixer. 10 μl of each sample was injected onto an HPLC-MS for quantification.
The HPLC-MS conditions for Compound I analysis are as follows: • Column: Phenomenex Fusion-RP or equivalent reversed-phase column, 5 um, 50×2 mm. • Flow rate: 0.6 mL/min. • Mobile phase A: 0.1% formic acid in water. • Mobile phase B: 0.1% formic acid in acetonitrile. • Gradient: 5-60% B in 1.5 min. • Mass spectrometer: Negative ion mode with electrospray ionization. • MS/MS: Compound I-Q1-m/e=296, Q3-m/e=234. • Compound II-Q1-m/e=331, Q3-m/e=201.
Biapenem standard curves were prepared in 50% plasma-50% 1M MOPS buffer, pH=7.4 from 1 to 250 ug/mL. 20 uL of sample or standard was added into a 96-well deep well plate. Then 500 uL of 10% water-45% methanol-45% acetonitrile containing 2 ug/mL of meropenem was used as an internal standard. The plate was vortexed for 15 min. at 3,000 RPM. 50 uL of supernatant was removed and added 300 uL of water. 10 uL of samples were injected onto an HPLC-MS system for quantification.
The HPLC-MS conditions for Biaphenem analysis are as follows: • Column: Supelco Discovery HS F5 or equivalent pentafluorophenyl column, 5 um, 50×2.1 mm. • Flow rate: 0.6 mL/min. • Mobile phase A: 0.1% formic acid in water. • Mobile phase B: 0.1% formic acid in acetonitrile. • Gradient: 5-70% B in 1.9 min. • Mass spectrometer: Positive ion mode with electrospray ionization. • MS/MS: Biapenem-Q1-m/e=350.8, Q3-m/e=110.1. • meropenem-Q1-m/e=384.1, Q3-m/e=141.1
Plasma concentrations were fit using a two compartment IV infusion model (WinNonlinVersion 5.3, Pharsight Corp, Mountain View, Calif.).

P. aeruginosa = assay: Potency of Biapenem with or without Compound I against P. aeruginosa (Example 4); format: cell-based
[2] = Single-dose pharmacokinetics of Compound I, intraperitoneal administration to Swiss-Webster mice (Example 5); format: in vivo; conditions: plasma, Mouse; for CL/F: read-out: CL or CL/F (converted)
Method: Example 5 provides the single-dose pharmacokinetic studies of Compound I inpreclinical species, including intraperitoneal administration to Swiss-Webster mice and intravaneous administration to Sprague-Dawley rats, Beagle dogs, and Cynomologus monkeys.
Intravaneous doses of Compound I were administered as 30-minute infusions. The pharmacokinetics of Compound I were also studied with coadministration of the carbapenem, Biapenem. Compound I concentrations were determined using an LC-MS detection method.

[3] = 20 mg/kg Compound I in combination with 20 mg/kg Biapenem

For `C[C@@H](O)[C@H]1C(=O)N2C(C(=O)[O-])=C(SC3Cn4cnc[n+]4C3)[C@H](C)[C@H]12` (stereo partly drawn) [Biapenem], the “Plasma pharmacokinetic parameters, alone versus in combination” value [1] was “unchanged”, the AUC [1, 3] was 10100 ± 1130 ng·h/mL and the clearance [1, 3] was 33.8 mL/min/kg. It also gave a half-life [1, 3] of 13.2 ± 0.6 min, an AUC ([1]; administered alone) of 8950 ± 890 ng·h/mL and a clearance ([1]; administered alone) of 38.2 mL/min/kg. The half-life ([1]; administered alone) was 12.6 ± 0.6 min, the “Biapenem Calc. Conc. in plasma” value ([1]; sample r.p. # 7.10 (first line), 20 mg/kg Compound I in combination with 20 mg/kg Biapenem) was 0.100 µg/mL and the “Biapenem Calc. Conc. in plasma” value ([1]; sample r.p. # 7.10 (second line), 20 mg/kg Compound I in combination with 20 mg/kg Biapenem) was less than 0 µg/mL. For the same compound, the “Biapenem Calc. Conc. in plasma” value ([1]; sample r.p. # 7.1, 20 mg/kg Compound I in combination with 20 mg/kg Biapenem) was 5.61 µg/mL, the “Biapenem Calc. Conc. in plasma” value ([1]; sample r.p. # 7.2, 20 mg/kg Compound I in combination with 20 mg/kg Biapenem) was 7.98 µg/mL and the “Biapenem Calc. Conc. in plasma” value ([1]; sample r.p. # 7.3, 20 mg/kg Compound I in combination with 20 mg/kg Biapenem) was 5.08 µg/mL. The “Biapenem Calc. Conc. in plasma” value ([1]; sample r.p. # 7.4, 20 mg/kg Compound I in combination with 20 mg/kg Biapenem) was 6.47 µg/mL, the “Biapenem Calc. Conc. in plasma” value ([1]; sample r.p. # 7.5, 20 mg/kg Compound I in combination with 20 mg/kg Biapenem) was 3.03 µg/mL and the “Biapenem Calc. Conc. in plasma” value ([1]; sample r.p. # 7.6, 20 mg/kg Compound I in combination with 20 mg/kg Biapenem) was 1.89 µg/mL. The “Biapenem Calc. Conc. in plasma” value ([1]; sample r.p. # 7.7, 20 mg/kg Compound I in combination with 20 mg/kg Biapenem) was 1.22 µg/mL, the “Biapenem Calc. Conc. in plasma” value ([1]; sample r.p. # 7.8, 20 mg/kg Compound I in combination with 20 mg/kg Biapenem) was 0.103 µg/mL and the “Biapenem Calc. Conc. in plasma” value ([1]; sample r.p. # 7.9, 20 mg/kg Compound I in combination with 20 mg/kg Biapenem) was 0.0321 µg/mL. For the same compound, the “Biapenem Calc. Conc. in plasma” value ([1]; sample r.p. # 8.10 (first line), 20 mg/kg Compound I in combination with 20 mg/kg Biapenem) was 0.0587 µg/mL, the “Biapenem Calc. Conc. in plasma” value ([1]; sample r.p. # 8.10 (second line), 20 mg/kg Compound I in combination with 20 mg/kg Biapenem) was “No Peak” and the “Biapenem Calc. Conc. in plasma” value ([1]; sample r.p. # 8.1, 20 mg/kg Compound I in combination with 20 mg/kg Biapenem) was 4.40 µg/mL. For the same compound, the “Biapenem Calc. Conc. in plasma” value ([1]; sample r.p. # 8.2, 20 mg/kg Compound I in combination with 20 mg/kg Biapenem) was 5.21 µg/mL, the “Biapenem Calc. Conc. in plasma” value ([1]; sample r.p. # 8.3, 20 mg/kg Compound I in combination with 20 mg/kg Biapenem) was 7.28 µg/mL and the “Biapenem Calc. Conc. in plasma” value ([1]; sample r.p. # 8.4, 20 mg/kg Compound I in combination with 20 mg/kg Biapenem) was 2.71 µg/mL. For the same compound, the “Biapenem Calc. Conc. in plasma” value ([1]; sample r.p. # 8.5, 20 mg/kg Compound I in combination with 20 mg/kg Biapenem) was 1.87 µg/mL, the “Biapenem Calc. Conc. in plasma” value ([1]; sample r.p. # 8.6, 20 mg/kg Compound I in combination with 20 mg/kg Biapenem) was 1.52 µg/mL and the “Biapenem Calc. Conc. in plasma” value ([1]; sample r.p. # 8.7, 20 mg/kg Compound I in combination with 20 mg/kg Biapenem) was 0.828 µg/mL. The “Biapenem Calc. Conc. in plasma” value ([1]; sample r.p. # 8.8, 20 mg/kg Compound I in combination with 20 mg/kg Biapenem) was 0.0353 µg/mL, the “Biapenem Calc. Conc. in plasma” value ([1]; sample r.p. # 8.9, 20 mg/kg Compound I in combination with 20 mg/kg Biapenem) was 0.0393 µg/mL and the “Biapenem Calc. Conc. in plasma” value ([1]; sample r.p. # 9.10 (first line), 20 mg/kg Compound I in combination with 20 mg/kg Biapenem) was 0.196 µg/mL. The “Biapenem Calc. Conc. in plasma” value ([1]; sample r.p. # 9.10 (second line), 20 mg/kg Compound I in combination with 20 mg/kg Biapenem) was less than 0 µg/mL, the “Biapenem Calc. Conc. in plasma” value ([1]; sample r.p. # 9.1, 20 mg/kg Compound I in combination with 20 mg/kg Biapenem) was 3.86 µg/mL and the “Biapenem Calc. Conc. in plasma” value ([1]; sample r.p. # 9.2, 20 mg/kg Compound I in combination with 20 mg/kg Biapenem) was 7.34 µg/mL. For the same compound, the “Biapenem Calc. Conc. in plasma” value ([1]; sample r.p. # 9.3, 20 mg/kg Compound I in combination with 20 mg/kg Biapenem) was 9.20 µg/mL, the “Biapenem Calc. Conc. in plasma” value ([1]; sample r.p. # 9.5, 20 mg/kg Compound I in combination with 20 mg/kg Biapenem) was 4.90 µg/mL and the “Biapenem Calc. Conc. in plasma” value ([1]; sample r.p. # 9.6, 20 mg/kg Compound I in combination with 20 mg/kg Biapenem) was 2.16 µg/mL. For the same compound, the “Biapenem Calc. Conc. in plasma” value ([1]; sample r.p. # 9.7, 20 mg/kg Compound I in combination with 20 mg/kg Biapenem) was 1.69 µg/mL, the “Biapenem Calc. Conc. in plasma” value ([1]; sample r.p. # 9.8, 20 mg/kg Compound I in combination with 20 mg/kg Biapenem) was 0.0705 µg/mL and the “Biapenem Calc. Conc. in plasma” value ([1]; sample r.p. # 9.9, 20 mg/kg Compound I in combination with 20 mg/kg Biapenem) was 0.00349 µg/mL. For the same compound, the “Potency against P. aeruginosa” value (P. aeruginosa; Biapenem compared with meropenem) was “potency similar to meropenem”.
For `O=C(O)C[C@@H]1CC[C@H](NC(=O)Cc2cccs2)B(O)O1` [Compound I], the “Plasma pharmacokinetic parameters, alone versus in combination” value [1] was “unchanged”, the AUC [1, 3] was 10400 ± 1150 ng·h/mL and the clearance [1, 3] was 32.5 mL/min/kg. It also gave a half-life [1, 3] of 23.4 ± 6.6 min, an AUC ([1]; administered alone) of 11000 ± 860 ng·h/mL and a clearance ([1]; administered alone) of 33 mL/min/kg. For the same compound, the half-life ([1]; administered alone) was 43.2 ± 9 min, the “Enhancement of Biapenem potency by the addition of Compound I” value (P. aeruginosa; P. aeruginosa) was “no enhancement” and the AUC ([2]; 5 mg/kg IP) was 3100 ng·h/mL. It also gave a Cmax ([2]; 5 mg/kg IP) of 8260 ng/mL, a half-life ([2]; 5 mg/kg IP) of 9.6 min and a CL/F ([2]; 5 mg/kg IP) of 26.8 mL/min/kg. It also gave an AUC ([2]; 15 mg/kg IP) of 8300 ng·h/mL, a Cmax ([2]; 15 mg/kg IP) of 19500 ng/mL and a half-life ([2]; 15 mg/kg IP) of 12 min. It also gave a CL/F ([2]; 15 mg/kg IP) of 30 mL/min/kg, an AUC ([2]; 50 mg/kg IP) of 31400 ng·h/mL and a Cmax ([2]; 50 mg/kg IP) of 67100 ng/mL. The half-life ([2]; 50 mg/kg IP) was 15 min and the CL/F ([2]; 50 mg/kg IP) was 26.7 mL/min/kg.
